Laboratory results as given in patent publication US6482805B2 (Parker Hughes Institute, priority 1998, dated 2002).
Like-named read-outs stand apart in the source and are kept apart here.

How the values were obtained:
HIV-1 = assay: Anti-HIV-1 activity, p24 antigen assay in infected PBMC (Example 1); assay type: cell-based; conditions: for anti-HIV activity, in words: compared with parent AZT derivatives
Description: Subsequently, cells were cultured in 96-well microtiter plates (100 μl/well; 2×10^6/ml, triplicate wells) in the presence and absence of various concentrations (0.00 μM to 100 μM) of drugs for 7 days. Aliquots of culture supernatants were removed from the wells on the 7th day after infection for p24 antigen enzyme immunoassay as an indication of viral replication. Erice et al. Antimicrob. Agents and Chemother. […] Agents and Chemother. […] Percent inhibition of virus replication was calculated by comparing the p24 antigen values from the test drug-treated infected cells with p24 antigen values from untreated infected cells. […] Cell viability was quantified by a colorimetric […] assay. F. M. Uckun et al., Antimicrob. Agents and Chemother.

human sperm = assay: Sperm motility assay by CASA (Example 1); assay type: cell-based; conditions: for spermicidal activity, in words: compared with related derivatives; for EC50: 3 hours incubation at 37° C., CASA, read-out: EC50, sperm motility
Description: All donor specimens were obtained after informed consent and in compliance with the guidelines of the Wayne Hughes Institute Institutional Review Board. Motile sperm (≧10×10^6/ml), were suspended in 0.5 ml of Biggers, Whitten, and Whittingam's medium (BWW) containing 25 mM HEPES (Irvine Scientific, Santa Ana, Calif.), and 0.3% bovine serum albumin (BSA; Fraction V, Sigma Chemical Co, St. Louis, Mo.) in the presence and absence of serial two-fold dilutions of test substance (300 μM to 4.6 μm) in 1% DMSO. The stock solutions of synthetic WHI compounds were prepared in DMSO (10 mg/ml) and diluted in DMSO to yield the desired concentrations. Corresponding volume of DMSO (1%) was added to control tubes. N-9 was diluted in BWW-0.3% BSA (pH 7.4) to yield the desired concentrations (4.6 to 300 μM). After 3 hours of incubation at 37° C., the percentage of motile sperm was evaluated by computer-assisted sperm analysis (CASA) as described [L. J. Burkman, Fertil. Steril. […] The percent motilities were compared with sham-treated control suspensions of motile sperm. […] Non-linear regression analyses were used to determine the EC50 values from the concentration effect curves using GraphPad PRISM software (San Diego, Calif.).
For evaluating sperm motion kinematics using CASA, 4 μl each of sperm suspension was loaded into two 20-μm Microcell chambers (Conception Technologies) that was placed onto a counting chamber at 37° C. At least 5-8 fields per chamber were scanned for analysis using a Hamilton Thorne Integrated Visual Optical System (IVOS), version 10 instrument (Hamilton Thorne Research Inc., Danvers, Mass.). Each field was recorded for 30 seconds. […] The performance of the analyzer was periodically checked using the play-back function. The attributes of sperm kinematic parameters evaluated included numbers of motile (MOT) and progressively (PRG) motile sperm; curvilinear velocity (VCL; a measure of the total distance traveled by a given sperm during the acquisition divided by the time elapsed); average path velocity (VAP; the spatially averaged path that eliminates the wobble of the sperm head), straight line velocity (VSL; the straight-line distance from beginning to end of track divided by time taken), beat cross frequency (BCF, frequency of sperm head crossing sperm average path), the amplitude of lateral head displacement (ALH; the mean width of sperm head oscillation) and the derivatives, straightness ([…]); linearity (LIN=100×VSL/VCL; departure of sperm track from a straight line). Data from each individual cell track were recorded and analyzed. At least 200 motile sperm were analyzed for each aliquot sampled.

sperm acrosome = assay: Sperm acrosome and membrane integrity by FITC-lectin staining, confocal, SEM and TEM (Example 4); assay type: cell-based, human; conditions: 100 μM WHI compounds or 10 μM Cal A23187, 3 hours
Description: The percentages of sperm with an intact acrosome were evaluated by fluorescence microscopy (Olympus BX-60) following fixation and ethanol permeabilization of the sperm pellets and subsequent staining with fluorescein (FITC)-conjugated Pisum sativum lectin (Sigma). In positive control sperm, the acrosome reaction was induced by incubating (3 hours at 37° C.) the sperm suspension with 10 μm calcium ionophore (Cal) A23187 (Sigma). […] The percentage of sperm positive for PI were determined by flow cytometry using a FACS Vantage flow cytometer (Becton Dickinson and Co., Mountain View, Calif.). The sperm in the swim-up fractions were identified by their characteristic forward and 90° angle light scattering properties [O. J. D'Cruz and G. G. Haas, Jr. Fertil. Steril. 58, 633 (1992)]. All analyses were done using the 488-nm excitation from an krypton/argon laser with a 635-nm band pass filter for PI emission. The percentage of sperm positive for PI staining were determined using cutoff signals for membrane-intact motile sperm.
Ethanol permeabilized and air-dried sperm smears were stained sequentially with the three fluorescent markers, FITC-Pisum sativum, TOTO-3 iodide, and Nile red, each marking a different target (acrosome, nucleus, and plasma membrane of permeabilized sperm respectively). Samples were examined under a BioRad MRC-1024 Laser Scanning Confocal Microscope (BioRad Laboratories, Hercules, Calif.) equipped with a krypton/argon mixed gas laser (excitation lines 488, 568, and 647 nm) and mounted on a Nikon Eclipse E800 series upright microscope. The fluorescence emission of fluorescein, TOTO-3 iodide, and Nile red from the acrosomal region, nucleus, and the plasma membrane of sperm after ethanol permeabilization were simultaneously detected using the 598/40 nm, 522 DF32, and 680 DF32 emission/filter respectively. Confocal images were obtained using a Nikon 60× (NA 1.35) objective lens and Kalman collection filter. Digitized images were processed with the Adobe Photoshop software (Adobe Systems, Mountain View, Calif.). Final images were printed using a Fujix Pictography 3000 (Fuji Photo Film Co., Tokyo, Japan) color printer.
High-resolution low-voltage scanning electron microscopy was utilized for topographical imaging of different membrane domains over the sperm head as described [M. H. Stoffel et al. Molecular. Reprod. Develop. 34, 175 (1993); S. L. Erlandsen et al. Scanning 11, 169 (1989)]. […] Washed sperm suspensions were placed on 0.1% poly-L-lysine-coated glass chips and allowed to adhere to the glass over a 60 minute incubation period on ice. The supernatants were decanted, and adherent cells were fixed in 1% paraformaldehyde and 1% glutaraldehyde in 0.14 M sodium cacodylate buffer for 3 hours. To preserve plasma membrane integrity, sperm were post-fixed in 1% osmium tetroxide (OSO4) containing 0.1% ruthenium red in 0.14 M cacodylate buffer for 1 hour at 4° C. All samples were dehydrated through an ascending ethanol series, critical point dried, and coated with approximately 2 nm of platinum using ion beam sputtering with argon (4 mA at 10 ke V; Ion Tech Ltd., Middlesex, England). All samples were examined in a Hitachi S-900 SEM at an accelerating voltage of 2 keV. Sperm were observed under low magnification (×2,000-5000) and representative sperm were photographed under intermediate magnification (×18,000-25,000). In each specimen evaluated, at least 200 sperm were scanned for the intactness of sperm acrosomal region.
For transmission electron microscopy, treated sperm were fixed in 3% glutaraldehyde in 5% sucrose in 0.2 M cacodylate buffer for 3 hours at room temperature. The samples were post-fixed in 1% OSO4, 5% sucrose and 0.1% ruthenium red for 2 hours at 4° C. The samples were dehydrated in ascending ethanol series, and embedded in Spurr's epoxy. Thin sections (90 nm) were prepared on a Reichert-Jung Ultracut E and stained with uranyl acetate and lead citrate.

5-Bromo-6-methoxy-5,6-dihydro-3 ′-deoxythymidine 5′-[Phenyl methoxyalaninyl phosphate] [WHI-12]
anti-HIV activity, in words (HIV-1): reduction in the anti-HIV activity | spermicidal activity, in words (human sperm): improvement of the spermicidal activity

5-Bromo-6-methoxy-5,6-dihydro-3′-deoxythymidine 5′-[p-Bromo phenyl methoxyalaninyl phosphate] [WHI-11]
anti-HIV activity, in words (HIV-1): reduction in the anti-HIV activity | spermicidal activity, in words (human sperm): improvement of the spermicidal activity

5-bromo-6-methoxy-5,6-dihydro-AZT [WHI-01]
anti-HIV activity, in words (HIV-1): without significantly decreasing the anti-HIV activity | EC50 (human sperm): 104 µM

Cc1cn([C@H]2C[C@H](N=[N+]=[N-])[C@@H](CO)O2)c(=O)[nH]c1=O [AZT, 3′-azido-3′-deoxythymidine, reference compound]
IC50 (HIV-1; Human immunodeficiency virus 1, PBMC, 168 h, read-out: IC50, HIV-1 replication (p24 antigen)): 0.006 µM | effect on sperm motion parameters (CASA kinematics) (human sperm): did not alter the sperm motion parameters | effect on sperm motility (human sperm; concentrations as high as 300 μm): did not affect sperm motility

CNc1ccc2oc(C[C@H]3O[C@@]4(CC[C@H]3C)O[C@H]([C@H](C)C(=O)c3ccc[nH]3)[C@H](C)C[C@H]4C)nc2c1C(=O)O [Cal A23187, calcium ionophore (Cal) A23187, reference compound]
sperm head topography by scanning electron microscopy (sperm acrosome): blebbing or vesiculation, fenestration, and loss of plasma and acrosomal membranes

COC1N([C@H]2C[C@H](N)[C@@H](CO)O2)C(=O)NC(=O)C1(C)Br (stereo partly shown) [WHI-03, 5-Bromo-6-methoxy-5,6-dihydro-3′-amino-3 ′-deoxythymidine]
anti-HIV activity, in words (HIV-1): substantially reduced anti-HIV activity | EC50 (human sperm; Homo sapiens, Sperm): 12 µM | melting point: 188 to 190 °C (dec.)
